Reference: PubChem BioAssay AID330 (DTP/NCI, 2004)
Several values for one entry are separate records, joined by “and”; a condition that tells them apart may be missing. Equal entries are not always repeated. Toxic doses and inconclusive results are not listed.

System: P388 leukemia ip, CD2F1 mice, survival T/C
Assay: NCI In Vivo Anticancer Drug Screen. Data for tumor model P388 Leukemia (intraperitoneal) in CD2F1 (CDF1) mice
Settings: endpoint: median survival time, higher = longer survival
Procedure, shortened: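 Mice carrying the transplanted tumor received test compound or vehicle. Survival was recorded in each group, and the value is the treated-group measurement divided by that of the vehicle-treated control group.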

[1] = dose: 50.0 mg/kg/injection, schedule: Q01DX005 (ip), vehicle: Klucel (hydroxypropylcellulose) (HPC)
[2] = dose: 100.0 mg/kg/injection, schedule: Q01DX005 (ip), vehicle: Klucel (hydroxypropylcellulose) (HPC)
[3] = dose: 200.0 mg/kg/injection, schedule: Q01DX005 (ip), vehicle: Klucel (hydroxypropylcellulose) (HPC)
[4] = dose: 50.0 mg/kg/injection, schedule: Q01DX009 (ip), vehicle: Klucel (hydroxypropylcellulose) (HPC)
[5] = dose: 100.0 mg/kg/injection, schedule: Q01DX009 (ip), vehicle: Klucel (hydroxypropylcellulose) (HPC)
[6] = dose: 200.0 mg/kg/injection, schedule: Q01DX009 (ip), vehicle: Klucel (hydroxypropylcellulose) (HPC)
[7] = dose: 50.0 mg/kg/injection, schedule: Q01DX009 (ip), vehicle: saline
[8] = dose: 100.0 mg/kg/injection, schedule: Q01DX009 (ip), vehicle: saline
[9] = dose: 200.0 mg/kg/injection, schedule: Q01DX009 (ip), vehicle: saline
[10] = dose: 100.0 mg/kg/injection, schedule: Q04DX003 (ip), vehicle: saline with Tween-80
[11] = dose: 200.0 mg/kg/injection, schedule: Q04DX003 (ip), vehicle: saline with Tween-80
[12] = dose: 50.0 mg/kg/injection, schedule: Q01DX005 (ip), vehicle: saline with Tween-80
[13] = dose: 100.0 mg/kg/injection, schedule: Q01DX005 (ip), vehicle: saline with Tween-80
[14] = dose: 50.0 mg/kg/injection, schedule: Q01DX009 (ip), vehicle: saline with Tween-80
[15] = dose: 100.0 mg/kg/injection, schedule: Q01DX009 (ip), vehicle: saline with Tween-80
[16] = dose: 200.0 mg/kg/injection, schedule: Q01DX009 (ip), vehicle: saline with Tween-80
[17] = dose: 200.0 mg/kg/injection, schedule: Q01DX005 (ip), vehicle: saline with Tween-80
[18] = dose: 6.25 mg/kg/injection, schedule: Q01DX009 (ip), vehicle: saline with Tween-80
[19] = dose: 12.5 mg/kg/injection, schedule: Q01DX009 (ip), vehicle: saline with Tween-80
[20] = dose: 25.0 mg/kg/injection, schedule: Q01DX009 (ip), vehicle: saline with Tween-80

## O=C1NC(=O)C2(C(=O)c3cccc4cccc2c34)N1c1ccccc1 (stereo not given)
dose: 50.0 mg/kg/injection, schedule: Q01DX009 (ip), vehicle: distilled water + alcohol
  T/C: 94 % of control
dose: 100.0 mg/kg/injection, schedule: Q01DX009 (ip), vehicle: distilled water + alcohol
  T/C: 102 % of control
dose: 200.0 mg/kg/injection, schedule: Q01DX009 (ip), vehicle: distilled water + alcohol
  T/C: 100 % of control

## Cc1nc2c(nc1C)C(=O)c1cc(O)ccc1C2=O
[1]
  T/C: 101 % of control
[2]
  T/C: 104 % of control
[3]
  T/C: 100 % of control

## COc1cccc(C)c1C1CC2CCCN2O1 (stereo not given)
[4]
  T/C: 105 % of control
[5]
  T/C: 106 % of control
[6]
  T/C: 89 % of control

## OC(CCl)Cn1nc2ccccc2n1 (stereo not given)
[1]
  T/C: 96 % of control
[2]
  T/C: 105 % of control
dose: 100.0 mg/kg/injection, schedule: Q04DX003 (ip), vehicle: Klucel (hydroxypropylcellulose) (HPC)
  T/C: 99 % of control
[3]
  T/C: 103 % of control
dose: 200.0 mg/kg/injection, schedule: Q04DX003 (ip), vehicle: Klucel (hydroxypropylcellulose) (HPC)
  T/C: 99 % of control
dose: 400.0 mg/kg/injection, schedule: Q04DX003 (ip), vehicle: Klucel (hydroxypropylcellulose) (HPC)
  T/C: 93 % of control

## COc1cc2cc(c1Cl)N(C)C(=O)CC(OC(=O)C(C)NC(=O)C(C)C)C1(C)OC1C(C)C1CC(O)(NC(=O)O1)C(OC)/C=C/C=C(C)C2OC (stereo not given)
dose: 32.0 micrograms/kg/injection, schedule: Q01DX009 (ip), vehicle: distilled water + alcohol
  T/C: 159 % of control

## CC(C)(C)OP(=O)(NN)OC(C)(C)C
[7]
  T/C: 101 % of control
[8]
  T/C: 108 % of control
[9]
  T/C: 99 % of control

## NS(=O)(=O)c1cc(Br)ccc1Br
[10]
  T/C: 99 % of control
[11]
  T/C: 117 % of control
dose: 400.0 mg/kg/injection, schedule: Q04DX003 (ip), vehicle: saline with Tween-80
  T/C: 117 % of control

## O=[N+]([O-])c1ccc(C=C2C=CN(CCO)C=C2)cc1
[12]
  T/C: 100 % of control
[13]
  T/C: 108 % of control

## COC(=O)N(c1ccccc1)c1ccccn1
dose: 60.0 mg/kg/injection, schedule: Q01DX005 (ip), vehicle: saline with Tween-80
  T/C: 106 % of control
dose: 120.0 mg/kg/injection, schedule: Q01DX005 (ip), vehicle: saline with Tween-80
  T/C: 97 % of control
dose: 240.0 mg/kg/injection, schedule: Q01DX005 (ip), vehicle: saline with Tween-80
  T/C: 100 % of control

## BrC1(Br)C2CCCCCCC21 (stereo not given)
[14]
  T/C: 100 % of control
dose: 50.0 mg/kg/injection, schedule: Q04DX003 (ip), vehicle: saline with Tween-80
  T/C: 100 % of control
[15]
  T/C: 100 % of control
[10]
  T/C: 104 % of control
[16]
  T/C: 100 % of control
[11]
  T/C: 104 % of control

## COC1(OC)OC2=C(OC1(OC)OC)c1ccccc1C2=O
dose: 7.5 mg/kg/injection, schedule: Q01DX005 (ip), vehicle: Klucel (hydroxypropylcellulose) (HPC)
  T/C: 114 % of control
dose: 15.0 mg/kg/injection, schedule: Q01DX005 (ip), vehicle: Klucel (hydroxypropylcellulose) (HPC)
  T/C: 114 % of control and 122 % of control
dose: 30.0 mg/kg/injection, schedule: Q01DX005 (ip), vehicle: Klucel (hydroxypropylcellulose) (HPC)
  T/C: 114 % of control and 115 % of control
dose: 60.0 mg/kg/injection, schedule: Q01DX005 (ip), vehicle: Klucel (hydroxypropylcellulose) (HPC)
  T/C: 111 % of control and 115 % of control (2×)

## O=C1OC(C(Cl)(Cl)Cl)NC1Cc1ccccc1 (stereo not given)
[14]
  T/C: 107 % of control
[15]
  T/C: 103 % of control
[16]
  T/C: 110 % of control

## CC1=C/C(=N\N2CCOCC2)C(C(O)(C(F)(F)F)C(F)(F)F)C(C)(C)C1 (stereo not given)
[4]
  T/C: 96 % of control
[5]
  T/C: 102 % of control
[6]
  T/C: 105 % of control

## CN(/C=C/C=C/C=N/O)c1ccccc1
dose: 50.0 mg/kg/injection, schedule: Q01DX001 (ip), vehicle: Klucel (hydroxypropylcellulose) (HPC)
  T/C: 104 % of control
dose: 100.0 mg/kg/injection, schedule: Q01DX001 (ip), vehicle: Klucel (hydroxypropylcellulose) (HPC)
  T/C: 100 % of control
dose: 200.0 mg/kg/injection, schedule: Q01DX001 (ip), vehicle: Klucel (hydroxypropylcellulose) (HPC)
  T/C: 99 % of control

## Cc1csc(NC(=O)Nc2ccc(F)cc2[N+](=O)[O-])n1
dose: 25.0 mg/kg/injection, schedule: Q01DX009 (ip), vehicle: Klucel (hydroxypropylcellulose) (HPC)
  T/C: 106 % of control
[4]
  T/C: 97 % of control
[14]
  T/C: 105 % of control
[5]
  T/C: 100 % of control
[15]
  T/C: 94 % of control
[6]
  T/C: 95 % of control

## CC(C)(C=C(c1ccccc1)c1ccccc1)C=C(c1ccccc1)c1ccccc1
[12]
  T/C: 95 % of control
[13]
  T/C: 98 % of control
[17]
  T/C: 95 % of control

## NC(CSCc1ccc(N(CCCl)CCCl)cc1)C(=O)O (stereo not given)
dose: 4.0 mg/kg/injection, schedule: Q01DX009 (ip), vehicle: saline with Tween-80
  T/C: 172 % of control
dose: 6.0 mg/kg/injection, schedule: Q01DX009 (ip), vehicle: saline with Tween-80
  T/C: 218 % of control
[18]
  T/C: 245 % of control
dose: 9.0 mg/kg/injection, schedule: Q01DX009 (ip), vehicle: saline with Tween-80
  T/C: 159 % of control

## OC(c1ccccc1)(C(F)(F)F)C(O)(c1ccccc1)C(F)(F)F (stereo not given)
[14]
  T/C: 99 % of control
[15]
  T/C: 104 % of control
[16]
  T/C: 87 % of control

## NCc1ccc(O)c(O)c1O
[7]
  T/C: 121 % of control and 123 % of control
[8]
  T/C: 118 % of control and 120 % of control
[9]
  T/C: 124 % of control and 88 % of control

## Brc1nsc(SSc2nc(Br)ns2)n1
[1]
  T/C: 103 % of control
[2]
  T/C: 103 % of control
[3]
  T/C: 102 % of control

## C=C(C#N)C1OC2OC(C)(C)OC2C1OCCCCCCCC (stereo not given)
dose: 100.0 mg/kg/injection, schedule: Q04DX002 (ip), vehicle: saline with Tween-80
  T/C: 106 % of control
dose: 200.0 mg/kg/injection, schedule: Q04DX002 (ip), vehicle: saline with Tween-80
  T/C: 106 % of control

## C/C(=N\NC(=S)N1CCC1)c1ccccn1
dose: 1.56 mg/kg/injection, schedule: Q01DX005 (ip), vehicle: other
  T/C: 99 % of control
dose: 3.12 mg/kg/injection, schedule: Q01DX005 (ip), vehicle: other
  T/C: 103 % of control
dose: 6.25 mg/kg/injection, schedule: Q01DX005 (ip), vehicle: other
  T/C: 99 % of control
[18]
  T/C: 95 % of control
dose: 12.5 mg/kg/injection, schedule: Q01DX005 (ip), vehicle: other
  T/C: 94 % of control
[19]
  T/C: 99 % of control
dose: 25.0 mg/kg/injection, schedule: Q01DX005 (ip), vehicle: other
  T/C: 100 % of control

## CCOC(=O)C(Cc1ccccc1[N+](=O)[O-])(NC(C)=O)C(=O)OCC
[14]
  T/C: 94 % of control
[15]
  T/C: 93 % of control
[16]
  T/C: 100 % of control
dose: 400.0 mg/kg/injection, schedule: Q01DX009 (ip), vehicle: saline with Tween-80
  T/C: 103 % of control

## O=C1c2ccccc2C(=O)C1C(=Nc1ccc(F)cc1)c1ccccc1
[1]
  T/C: 103 % of control
[2]
  T/C: 103 % of control
[3]
  T/C: 99 % of control

## [Br][Pb]([Br])([c]1ccccc1)[c]1ccccc1
[19]
  T/C: 104 % of control and 112 % of control
[20]
  T/C: 113 % of control (2×) and 114 % of control
[14]
  T/C: 107 % of control and 121 % of control
[15]
  T/C: 98 % of control

## Cc1ccc(C)c(NC(=O)Oc2cc(C)c(Cl)c(C)c2)c1
[14]
  T/C: 101 % of control
[15]
  T/C: 105 % of control
[16]
  T/C: 98 % of control

## CSc1nc(C)c(Br)c(Sc2nc(N)nc3nc[nH]c23)n1
[19]
  T/C: 104 % of control
[14]
  T/C: 113 % of control and 122 % of control
[11]
  T/C: 95 % of control

## Cc1cc(C)c(S(=O)(=O)O)c(C)c1Nc1ccc(Nc2c(C)cc(C)c(S(=O)(=O)O)c2C)c2c1C(=O)c1ccccc1C2=O
[14]
  T/C: 92 % of control
[15]
  T/C: 91 % of control

## O=C1CSC(=S)N1c1ccc(I)cc1
dose: 50.0 mg/kg/injection, schedule: Q01DX009 (ip), vehicle: suspension in saline
  T/C: 101 % of control
dose: 100.0 mg/kg/injection, schedule: Q01DX009 (ip), vehicle: suspension in saline
  T/C: 101 % of control
dose: 200.0 mg/kg/injection, schedule: Q01DX009 (ip), vehicle: suspension in saline
  T/C: 114 % of control

## CC(C)=NO
[7]
  T/C: 117 % of control
[8]
  T/C: 100 % of control
[9]
  T/C: 101 % of control

## CCCCCCCCCCC1(CCCC)C(=O)NC(=O)NC1=O
[20]
  T/C: 110 % of control
[14]
  T/C: 108 % of control
[15]
  T/C: 110 % of control

## C#CCOCC(O)CCl (stereo not given)
[8]
  T/C: 90 % of control
[9]
  T/C: 105 % of control

## CCCCCCN(CCCCCC)CC(O)c1cc(-c2ccccc2)nc2cc(Cl)ccc12 (stereo not given)
[12]
  T/C: 115 % of control
[13]
  T/C: 103 % of control
[17]
  T/C: 113 % of control
